Results reported in paper PMC6934184, “Selective DNA-PKcs inhibition extends the therapeutic index of localized radiotherapy and chemotherapy” (The Journal of Clinical Investigation, 2019).

Target: T1, MINK1 (Homo sapiens, UniProt Q8N4C8)
T1 construct: purchased Thermo Fisher Scientific (Life Technologies) SelectScreen
Test: SelectScreen Z'LYTE
Type: biochemical
Outline: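 Percent values come from Thermo SelectScreen profiling of NU5455, combining activity and binding assays. CSF1R was run in Z'LYTE format at Km app ATP, and CAMK1 in Adapta format with ATP listed at 10.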

T1 sequence (Q8N4C8 whole entry): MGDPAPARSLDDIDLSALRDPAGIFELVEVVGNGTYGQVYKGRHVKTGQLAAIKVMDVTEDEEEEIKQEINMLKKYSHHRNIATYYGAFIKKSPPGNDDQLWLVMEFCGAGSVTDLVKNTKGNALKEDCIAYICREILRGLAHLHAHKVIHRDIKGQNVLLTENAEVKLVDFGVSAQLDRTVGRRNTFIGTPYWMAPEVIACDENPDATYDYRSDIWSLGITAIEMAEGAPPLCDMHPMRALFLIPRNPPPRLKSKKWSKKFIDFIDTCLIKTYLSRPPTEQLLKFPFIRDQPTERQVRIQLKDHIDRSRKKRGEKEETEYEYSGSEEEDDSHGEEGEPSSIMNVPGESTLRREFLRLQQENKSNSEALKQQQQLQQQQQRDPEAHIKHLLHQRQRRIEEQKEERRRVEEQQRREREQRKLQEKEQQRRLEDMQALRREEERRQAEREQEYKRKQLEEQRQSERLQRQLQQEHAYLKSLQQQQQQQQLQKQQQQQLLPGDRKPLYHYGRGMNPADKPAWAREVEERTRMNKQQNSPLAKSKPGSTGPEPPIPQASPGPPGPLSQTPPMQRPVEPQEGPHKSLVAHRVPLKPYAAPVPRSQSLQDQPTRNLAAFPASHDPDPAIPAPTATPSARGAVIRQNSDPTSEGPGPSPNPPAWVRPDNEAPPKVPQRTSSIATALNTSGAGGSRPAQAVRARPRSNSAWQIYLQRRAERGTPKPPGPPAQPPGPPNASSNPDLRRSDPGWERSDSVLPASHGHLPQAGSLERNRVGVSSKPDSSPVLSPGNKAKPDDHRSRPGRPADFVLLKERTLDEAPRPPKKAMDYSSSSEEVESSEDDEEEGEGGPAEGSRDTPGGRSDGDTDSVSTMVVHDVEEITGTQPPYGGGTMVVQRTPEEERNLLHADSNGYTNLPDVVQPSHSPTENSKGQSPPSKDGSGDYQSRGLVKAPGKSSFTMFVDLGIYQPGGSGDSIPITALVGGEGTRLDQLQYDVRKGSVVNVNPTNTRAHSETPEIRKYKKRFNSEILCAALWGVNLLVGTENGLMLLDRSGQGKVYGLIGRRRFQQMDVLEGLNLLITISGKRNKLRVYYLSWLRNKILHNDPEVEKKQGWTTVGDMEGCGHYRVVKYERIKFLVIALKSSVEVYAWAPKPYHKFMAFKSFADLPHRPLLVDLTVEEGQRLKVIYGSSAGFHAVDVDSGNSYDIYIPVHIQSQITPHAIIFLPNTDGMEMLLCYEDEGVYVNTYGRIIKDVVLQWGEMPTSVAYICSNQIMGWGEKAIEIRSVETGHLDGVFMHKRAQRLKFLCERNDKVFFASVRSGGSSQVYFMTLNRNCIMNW

CN(C(=O)CN1CCOCC1)c1ccc2sc3c(-c4cccc5c(=O)cc(N6CC7CCC(C6)O7)oc45)cccc3c2c1 [NU5455]
inhibition at 1 µM: 4.6%
